Like-named read-outs stand apart in the source and are kept apart here.
Key:
KRAS WT = KRAS WT (Homo sapiens, UniProt P01116+P62937); test: Disruption of BRAF RBD interaction with Ras (FRET / MOA assay, with Cyclophilin A); assay type: biochemical
In short: (§1)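 Cyclophilin A-dependent ternary complex assay. K-Ras loaded with nucleotide; BRAF RBD as effector. Cpd top 30 μM final, 3 h at 25 °C. Readout: TR-FRET ratio, IC50.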

KRAS G12C = KRAS G12C (Homo sapiens, UniProt P01116+P62937, G12C); test: as above; assay type: biochemical
In short: as §1

KRAS G12D = KRAS G12D (Homo sapiens, UniProt P01116+P62937, G12D); test: as above; assay type: biochemical
In short: as §1

KRAS G13D = KRAS G13D (Homo sapiens, UniProt P01116+P62937, G13D); test: as above; assay type: biochemical
In short: as §1

KRAS G13C = KRAS G13C (Homo sapiens, UniProt P01116+P62937, G13C); test: as above; assay type: biochemical
In short: as §1

NRAS G12C = NRAS G12C (Homo sapiens, UniProt P01111+P62937, G12C); test: as above; assay type: biochemical
KRAS G12S = KRAS G12S (Homo sapiens, UniProt P01116+P62937, G12S); test: as above; assay type: biochemical
In short: as §1

KRAS G12V = KRAS G12V (Homo sapiens, UniProt P01116+P62937, G12V); test: as above; assay type: biochemical
In short: as §1

NCI-H358 (K-Ras G12C) = test: CellTiter-Glo cell viability assay, 5-day treatment; assay type: cell-based; conditions: Homo sapiens, NCI-H358, 120 h, 5-day treatment; read-out: H358 Cell Viability assay data (K-Ras G12C, IC50)
In short: (§2)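 Viability is read as luminescence on day 5 after direct compound addition to plated cells, following about 30 minutes' room-temperature equilibration. Each signal is scaled to mean DMSO as 100%.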

KRAS Q61H = KRAS Q61H (Homo sapiens, UniProt P01116+P62937, Q61H); test: Disruption of BRAF RBD interaction with Ras (FRET / MOA assay, with Cyclophilin A); assay type: biochemical; conditions: KRAS Q61H; read-out: KRAS Q61H FRET data IC50
In short: (§3)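 TR-FRET in 25 mM HEPES pH 7.3, 100 mM NaCl, 5 mM MgCl2, 0.1% BSA: 25 μM Cyclophilin A, 12.5 nM His6-Ras-GMPPNP, 50 nM GST-BRAF RBD with compound (10-point 3-fold series from 30 μM), 3 h at 25° C. Anti-His Eu/anti-GST APC added, 1.5 h more; IC50 from decreased FRET ratio versus DMSO.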

NRAS Q61R = NRAS Q61R (Homo sapiens, UniProt P01111+P62937, Q61R); test: as above; assay type: biochemical; conditions: NRAS Q61R; read-out: NRAS Q61R FRET data IC50
In short: as §3

NRAS Q61K = NRAS Q61K (Homo sapiens, UniProt P01111+P62937, Q61K); test: as above; assay type: biochemical; conditions: NRAS Q61K; read-out: NRAS Q61K FRET data IC50
In short: as §3

NRAS WT = NRAS WT (Homo sapiens, UniProt P01111+P62937); test: as above; assay type: biochemical; conditions: NRAS WT; read-out: NRAS WT FRET data IC50
In short: as §3

Capan-1 (K-Ras G12V) = test: CellTiter-Glo cell viability assay, 5-day treatment; assay type: cell-based; conditions: Homo sapiens, CAPAN-1, 120 h, 5-day treatment; read-out: Capan-1 Cell Viability assay data (K-Ras G12V, IC50)
In short: as §2

[1] = KRAS WT FRET data IC50, KRAS WT
[2] = KRAS G13D FRET data IC50, KRAS G13D
[3] = NRAS G12C FRET data IC50, NRAS G12C
[4] = KRAS G12V FRET data IC50, KRAS G12V
[5] = KRAS WT, read-out: KRAS WT FRET data IC50
[6] = read-out: KRAS G12C FRET data, IC50
[7] = read-out: KRAS G12D FRET data, IC50
[8] = KRAS G13D, read-out: KRAS G13D FRET data IC50
[9] = read-out: KRAS G13C FRET data, IC50
[10] = NRAS G12C, read-out: NRAS G12C FRET data IC50
[11] = read-out: KRAS G12S FRET data, IC50
[12] = KRAS G12V, read-out: KRAS G12V FRET data IC50

Chain of KRAS G13C (P01116 1-169 isoform P01116-2 G13C): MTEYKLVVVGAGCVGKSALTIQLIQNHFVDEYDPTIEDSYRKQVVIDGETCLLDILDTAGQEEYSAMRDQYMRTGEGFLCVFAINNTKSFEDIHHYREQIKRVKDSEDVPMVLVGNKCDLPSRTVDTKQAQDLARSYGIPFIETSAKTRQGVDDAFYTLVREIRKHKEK
Chain of KRAS G13C (P62937 whole entry): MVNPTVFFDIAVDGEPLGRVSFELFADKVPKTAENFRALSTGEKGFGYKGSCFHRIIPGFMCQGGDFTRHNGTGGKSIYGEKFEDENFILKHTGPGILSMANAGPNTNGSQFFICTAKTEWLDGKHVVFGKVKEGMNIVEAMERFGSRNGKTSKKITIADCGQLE
Chain of NRAS G12C (P01111 whole entry G12C): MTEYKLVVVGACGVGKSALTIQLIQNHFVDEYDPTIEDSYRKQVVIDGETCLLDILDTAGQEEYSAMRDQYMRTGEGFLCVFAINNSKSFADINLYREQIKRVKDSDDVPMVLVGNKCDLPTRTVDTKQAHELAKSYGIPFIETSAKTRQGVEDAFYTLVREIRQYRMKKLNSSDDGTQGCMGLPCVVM
Chain of NRAS G12C (P62937 whole entry): as the sequence (P62937 whole entry) above
Chain of KRAS G12S (P01116 1-169 isoform P01116-2 G12S limits assumed): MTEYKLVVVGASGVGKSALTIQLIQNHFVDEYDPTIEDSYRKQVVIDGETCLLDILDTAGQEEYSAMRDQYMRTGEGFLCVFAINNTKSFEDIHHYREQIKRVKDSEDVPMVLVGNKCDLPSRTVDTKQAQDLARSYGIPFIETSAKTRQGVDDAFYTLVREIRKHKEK
Chain of KRAS G12S (P62937 whole entry): as the sequence (P62937 whole entry) above
Chain of NRAS WT (P01111 whole entry): as the sequence (P01111 whole entry G12C) above, with C12G counted along it
Chain of NRAS WT (P62937 whole entry): as the sequence (P62937 whole entry) above
Chain of KRAS G12C (P01116 1-169 isoform P01116-2 G12C): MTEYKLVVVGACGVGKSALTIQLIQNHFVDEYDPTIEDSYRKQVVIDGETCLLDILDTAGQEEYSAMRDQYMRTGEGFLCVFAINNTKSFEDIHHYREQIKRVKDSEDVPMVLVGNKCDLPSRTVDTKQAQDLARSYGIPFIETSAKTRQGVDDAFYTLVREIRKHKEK
Chain of KRAS G12C (P62937 whole entry): as the sequence (P62937 whole entry) above
Chain of KRAS G13D (P01116 1-169 isoform P01116-2 G13D limits assumed): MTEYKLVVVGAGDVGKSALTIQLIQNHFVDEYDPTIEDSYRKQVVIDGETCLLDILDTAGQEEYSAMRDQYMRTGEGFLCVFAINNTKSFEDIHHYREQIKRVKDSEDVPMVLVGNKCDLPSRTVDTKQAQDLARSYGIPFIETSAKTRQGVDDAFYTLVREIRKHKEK
Chain of KRAS G13D (P62937 whole entry): as the sequence (P62937 whole entry) above
Chain of NRAS Q61K (P01111 whole entry Q61K): as the sequence (P01111 whole entry G12C) above, with C12G, Q61K counted along it
Chain of NRAS Q61K (P62937 whole entry): as the sequence (P62937 whole entry) above
Chain of KRAS G12V (P01116 1-169 isoform P01116-2 G12V limits assumed): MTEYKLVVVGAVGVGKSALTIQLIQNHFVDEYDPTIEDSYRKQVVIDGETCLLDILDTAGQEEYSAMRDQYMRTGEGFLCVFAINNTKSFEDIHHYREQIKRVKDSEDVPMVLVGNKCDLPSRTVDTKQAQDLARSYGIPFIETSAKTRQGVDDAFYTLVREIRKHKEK
Chain of KRAS G12V (P62937 whole entry): as the sequence (P62937 whole entry) above
Chain of NRAS Q61R (P01111 whole entry Q61R): as the sequence (P01111 whole entry G12C) above, with C12G, Q61R counted along it
Chain of NRAS Q61R (P62937 whole entry): as the sequence (P62937 whole entry) above
Chain of KRAS WT (P01116 1-169 isoform P01116-2 limits assumed): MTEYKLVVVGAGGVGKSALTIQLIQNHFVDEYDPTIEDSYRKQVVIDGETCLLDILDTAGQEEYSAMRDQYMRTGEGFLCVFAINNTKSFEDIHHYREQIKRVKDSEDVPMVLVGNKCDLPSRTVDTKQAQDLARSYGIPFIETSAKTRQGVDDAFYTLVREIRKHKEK
Chain of KRAS WT (P62937 whole entry): as the sequence (P62937 whole entry) above
Chain of KRAS G12D (P01116 1-169 isoform P01116-2 G12D limits assumed): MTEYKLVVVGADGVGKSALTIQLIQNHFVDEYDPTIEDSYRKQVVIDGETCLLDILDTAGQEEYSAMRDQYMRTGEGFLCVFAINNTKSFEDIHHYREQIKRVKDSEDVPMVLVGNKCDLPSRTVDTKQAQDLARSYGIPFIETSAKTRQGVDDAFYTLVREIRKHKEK
Chain of KRAS G12D (P62937 whole entry): as the sequence (P62937 whole entry) above
Chain of KRAS Q61H (P01116 1-169 isoform P01116-2 Q61H limits assumed): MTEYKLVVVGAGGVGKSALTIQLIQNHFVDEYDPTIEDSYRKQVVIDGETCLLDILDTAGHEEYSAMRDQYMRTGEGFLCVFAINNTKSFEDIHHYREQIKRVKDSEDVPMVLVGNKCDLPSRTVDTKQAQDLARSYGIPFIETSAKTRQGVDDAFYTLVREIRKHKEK
Chain of KRAS Q61H (P62937 whole entry): as the sequence (P62937 whole entry) above

Row | Structure (SMILES) | IC50 (KRAS WT; [1]) [nM] | IC50 (KRAS G12C; KRAS G12C FRET data, IC50) [nM] | IC50 (KRAS G12D; KRAS G12D FRET data, IC50) [nM] | IC50 (KRAS G13D; [2]) [nM] | IC50 (KRAS G13C; KRAS G13C FRET data, IC50) [nM] | IC50 (NRAS G12C; [3]) [nM] | IC50 (KRAS G12S; KRAS G12S FRET data, IC50) [nM] | IC50 (KRAS Q61H) [nM] | IC50 (NRAS Q61R) [nM] | IC50 (NRAS Q61K) [nM] | IC50 (NRAS WT) [nM] | IC50 (KRAS WT; [5]) [nM] | IC50 (KRAS G12C; [6]) [nM] | IC50 (KRAS G12D; [7]) [nM] | IC50 (KRAS G13D; [8]) [nM] | IC50 (KRAS G13C; [9]) [nM] | IC50 (NRAS G12C; [10]) [nM] | IC50 (KRAS G12S; [11]) [nM] | IC50 (KRAS G12V; [12]) [nM] | IC50 (Capan-1 (K-Ras G12V)) [nM] | further results
1 | CCn1c(-c2cc(N3CCN(C)CC3)cnc2[C@H](C)OC)c2c3cc(ccc31)-c1csc(n1)C[C@H](NC(C)=O)C(=O)N1CCC[C@H](N1)C(=O)OCC(C)(C)C2 [Example A321] | – | – | – | – | – | – | – | 100 to 1000 | 100 to 1000 | 100 to 1000 | 100 to 1000 | 100 to 1000 | 10 to 100 | 100 to 1000 | 100 to 1000 | 100 to 1000 | 10 to 100 | 100 to 1000 | 100 to 1000 | – | IC50 (NCI-H358 (K-Ras G12C)): 100 to 1000 nM
2 | CCn1c(-c2cccnc2[C@H](C)OC)c2c3cc(ccc31)-c1csc(n1)C[C@H](NC(=O)c1ccccn1)C(=O)N1CCC[C@H](N1)C(=O)OCC(C)(C)C2 [Example A366] | – | – | – | – | – | – | – | 100 to 1000 | 1000 to 10000 | 100 to 1000 | 100 to 1000 | 1000 to 10000 | 100 to 1000 | 1000 to 10000 | 1000 to 10000 | 100 to 1000 | 100 to 1000 | 1000 to 10000 | 100 to 1000 | 1000 to 10000 | –
3 | CCn1c(-c2cccnc2[C@H](C)OC)c2c3cc(ccc31)-c1csc(n1)C[C@H](NC(=O)[C@H](C(C)C)N(C)C(=O)N1CC(N)(C#N)C1)C(=O)N1CCC[C@H](N1)C(=O)OCC(C)(C)C2 [Example A456] | 100 to 1000 | 100 to 1000 | 1000 to 10000 | 1000 to 10000 | 100 to 1000 | 100 to 1000 | 100 to 1000 | 100 to 1000 | 100 to 1000 | 100 to 1000 | 100 to 1000 | – | – | – | – | – | – | – | – | 1000 to 10000 | IC50 (KRAS G12V; [4]): 100 to 1000 nM

More lines, main results first:

Row | IC50 (KRAS WT; [1]) [nM] | IC50 (KRAS G12C; KRAS G12C FRET data, IC50) [nM] | IC50 (KRAS G12D; KRAS G12D FRET data, IC50) [nM] | IC50 (KRAS G13D; [2]) [nM] | IC50 (KRAS G13C; KRAS G13C FRET data, IC50) [nM] | IC50 (NRAS G12C; [3]) [nM] | IC50 (KRAS G12S; KRAS G12S FRET data, IC50) [nM] | IC50 (KRAS Q61H) [nM] | IC50 (NRAS Q61R) [nM] | IC50 (NRAS Q61K) [nM] | IC50 (NRAS WT) [nM] | IC50 (KRAS WT; [5]) [nM] | IC50 (KRAS G12C; [6]) [nM] | IC50 (KRAS G12D; [7]) [nM] | IC50 (KRAS G13D; [8]) [nM] | IC50 (KRAS G13C; [9]) [nM] | IC50 (NRAS G12C; [10]) [nM] | IC50 (KRAS G12S; [11]) [nM] | IC50 (KRAS G12V; [12]) [nM] | Structure (SMILES) | IC50 (Capan-1 (K-Ras G12V)) [nM] | further results
4 | 1000 to 10000 | 1000 to 10000 | > 10000 | 1000 to 10000 | 1000 to 10000 | 1000 to 10000 | 1000 to 10000 | 100 to 1000 | 1000 to 10000 | 1000 to 10000 | 1000 to 10000 | – | – | – | – | – | – | – | – | CCn1c(-c2cnccc2COC)c2c3cc(ccc31)-c1cc(O)cc(c1)C[C@H](NC(=O)[C@H](C(C)C)N(C)S(C)(=O)=O)C(=O)N1CCC[C@H](N1)C(=O)OCC(C)(C)C2 [Example A57, (2S)—N-[(8S,14S)-22-ethyl-4-hydroxy-21-[4-(methoxymethyl)pyridin-3-yl]-18,18-dimethyl-9,15-dioxo-16-oxa-10,22,28-triazapentacyclo[18.5.2.1^2,6.1^10,14.0^23,27]nonacosa-1(26),2,4,6(29),20,23(27),24-heptaen-8-yl]-3-methyl-2-(N-methylmethanesulfonamido)butanamide] | – | IC50 (KRAS G12V; [4]): 1000 to 10000 nM; IC50 (NCI-H358 (K-Ras G12C)): 1000 to 10000 nM
5 | – | – | – | – | – | – | – | 100 to 1000 | 1000 to 10000 | 100 to 1000 | 100 to 1000 | 100 to 1000 | 100 to 1000 | 1000 to 10000 | 1000 to 10000 | 100 to 1000 | 100 to 1000 | 100 to 1000 | 100 to 1000 | CCn1c(-c2cccnc2[C@H](C)OC)c2c3cc(ccc31)-c1csc(n1)C[C@H](NC(=O)[C@@H]1CCCO1)C(=O)N1CCC[C@H](N1)C(=O)OCC(C)(C)C2 [Example A331] | 1000 to 10000 | –
6 | – | – | – | – | – | – | – | 10 to 100 | 100 to 1000 | 100 to 1000 | 10 to 100 | 100 to 1000 | 100 to 1000 | 100 to 1000 | 100 to 1000 | 100 to 1000 | 100 to 1000 | 100 to 1000 | 1000 to 10000 | CCn1c(-c2cccnc2[C@H](C)OC)c2c3cc(ccc31)-c1csc(n1)C[C@H](NC(=O)[C@H](C(C)C)N(C)C(=O)N1CC[C@]13CCCNC3)C(=O)N1CCC[C@H](N1)C(=O)OCC(C)(C)C2 [Example A434] | 1000 to 10000 | –
